Source: article PMC5289526, “Crystal Structure and Catalytic Mechanism of CouO, a Versatile C-Methyltransferase from Streptomyces rishiriensis” (PLoS ONE, 2017)

Biological target: T1, CouO (Streptomyces rishiriensis, UniProt Q9F8T9)
T1 construct: recombinant from E. coli; pET26b-CouO template, pMS470 vector in E. coli TOP10F' for activity assays
Assay: X-ray crystal structure, […] Å
Format: binding
Conditions: one SAH in each of two chains; cofactor site

T1 sequence (Q9F8T9 whole entry): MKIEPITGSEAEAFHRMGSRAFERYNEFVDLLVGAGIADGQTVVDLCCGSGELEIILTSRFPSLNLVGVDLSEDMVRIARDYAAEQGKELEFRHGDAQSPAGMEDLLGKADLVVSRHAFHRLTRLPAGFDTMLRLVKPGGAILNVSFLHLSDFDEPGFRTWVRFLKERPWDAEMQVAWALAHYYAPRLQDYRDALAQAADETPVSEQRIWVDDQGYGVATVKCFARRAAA

Question: `Nc1ncnc2c1ncn2[C@@H]1O[C@H](CSCC[C@H](N)C(=O)O)[C@@H](O)[C@H]1O` [SAH] was tested. Which “X-ray crystal structure, 2.05 Å” value did it give?
Answer: Its value is “one SAH cofactor molecule was present in each chain”.
